Measured values reported in PubChem BioAssay (NCI).
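1) Cells in 96-well plates. 2) Compound, 48 h, 5 concentrations. 3) Linear interpolation between surrounding doses. 4) Unreached endpoint = highest concentration. TGI is the concentration that stops growth completely.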

Tests used:
Test in all cases: inhibition of tumour cell growth, NCI panel, 48 h
786-0 renal = test system: 786-0 renal
A498 renal = test system: A498 renal
A549 NSCLC = test system: A549 NSCLC
ACHN renal = test system: ACHN renal
BT-549 breast = test system: BT-549 breast
CAKI-1 renal = test system: CAKI-1 renal
CCRF-CEM leukemia = test system: CCRF-CEM leukemia
COLO 205 colon = test system: COLO 205 colon
DU-145 prostate = test system: DU-145 prostate
EKVX NSCLC = test system: EKVX NSCLC
HCC-2998 colon = test system: HCC-2998 colon
HCT-116 colon = test system: HCT-116 colon
HCT-15 colon = test system: HCT-15 colon
HL-60(TB) leukemia = test system: HL-60(TB) leukemia
HOP-62 NSCLC = test system: HOP-62 NSCLC
HOP-92 NSCLC = test system: HOP-92 NSCLC
HS 578T breast = test system: HS 578T breast
HT29 colon = test system: HT29 colon
IGROV1 ovarian = test system: IGROV1 ovarian
K-562 leukemia = test system: K-562 leukemia
KM12 colon = test system: KM12 colon
LOX IMVI melanoma = test system: LOX IMVI melanoma
M14 melanoma = test system: M14 melanoma
MALME-3M melanoma = test system: MALME-3M melanoma
MCF7 breast = test system: MCF7 breast
MDA-MB-231 breast = test system: MDA-MB-231 breast
MDA-MB-435 = test system: MDA-MB-435
MDA-N = test system: MDA-N
MOLT-4 leukemia = test system: MOLT-4 leukemia
NCI-H226 lung = test system: NCI-H226 lung
NCI-H23 lung = test system: NCI-H23 lung
NCI-H460 lung = test system: NCI-H460 lung
NCI-H522 lung = test system: NCI-H522 lung
NCI/ADR-RES ovarian = test system: NCI/ADR-RES ovarian
OVCAR-3 ovarian = test system: OVCAR-3 ovarian
OVCAR-4 ovarian = test system: OVCAR-4 ovarian
OVCAR-5 ovarian = test system: OVCAR-5 ovarian
OVCAR-8 ovarian = test system: OVCAR-8 ovarian
PC-3 prostate = test system: PC-3 prostate
RPMI-8226 leukemia = test system: RPMI-8226 leukemia
RXF 393 renal = test system: RXF 393 renal
SF-268 CNS = test system: SF-268 CNS
SF-295 CNS = test system: SF-295 CNS
SF-539 CNS = test system: SF-539 CNS
SK-MEL-2 melanoma = test system: SK-MEL-2 melanoma
SK-MEL-28 melanoma = test system: SK-MEL-28 melanoma
SK-MEL-5 melanoma = test system: SK-MEL-5 melanoma
SK-OV-3 ovarian = test system: SK-OV-3 ovarian
SN12C renal = test system: SN12C renal
SNB-19 CNS = test system: SNB-19 CNS
SNB-75 CNS = test system: SNB-75 CNS
SR leukemia = test system: SR leukemia
SW-620 colon = test system: SW-620 colon
T-47D breast = test system: T-47D breast
TK-10 renal = test system: TK-10 renal
U251 CNS = test system: U251 CNS
UACC-257 melanoma = test system: UACC-257 melanoma
UACC-62 melanoma = test system: UACC-62 melanoma
UO-31 renal = test system: UO-31 renal

COC(OC)C1(c2ccccc2)Oc2ccccc2C1=O (centres undefined)
TGI (786-0 renal): > 100 µM
TGI (A498 renal): > 100 µM
TGI (A549 NSCLC): > 100 µM
TGI (ACHN renal): > 100 µM
TGI (BT-549 breast): > 100 µM
TGI (CAKI-1 renal): > 100 µM
TGI (CCRF-CEM leukemia): > 100 µM
TGI (COLO 205 colon): > 100 µM
TGI (DU-145 prostate): > 100 µM
TGI (EKVX NSCLC): > 100 µM
TGI (HCC-2998 colon): > 100 µM
TGI (HCT-116 colon): > 100 µM
TGI (HCT-15 colon): > 100 µM
TGI (HL-60(TB) leukemia): > 100 µM
TGI (HOP-62 NSCLC): > 100 µM
TGI (HOP-92 NSCLC): > 100 µM
TGI (HS 578T breast): > 100 µM
TGI (HT29 colon): > 100 µM
TGI (IGROV1 ovarian): > 100 µM
TGI (K-562 leukemia): > 100 µM
TGI (KM12 colon): > 100 µM
TGI (LOX IMVI melanoma): > 100 µM
TGI (M14 melanoma): > 100 µM
TGI (MALME-3M melanoma): > 100 µM
TGI (MCF7 breast): > 100 µM
TGI (MDA-MB-231 breast): > 100 µM
TGI (MDA-MB-435): > 100 µM
TGI (MDA-N): > 100 µM
TGI (MOLT-4 leukemia): > 100 µM
TGI (NCI-H226 lung): > 100 µM
TGI (NCI-H23 lung): > 100 µM
TGI (NCI-H460 lung): > 100 µM
TGI (NCI-H522 lung): > 100 µM
TGI (NCI/ADR-RES ovarian): > 100 µM
TGI (OVCAR-3 ovarian): > 100 µM
TGI (OVCAR-4 ovarian): > 100 µM
TGI (OVCAR-5 ovarian): > 100 µM
TGI (OVCAR-8 ovarian): > 100 µM
TGI (PC-3 prostate): > 100 µM
TGI (RPMI-8226 leukemia): > 100 µM
TGI (RXF 393 renal): > 100 µM
TGI (SF-268 CNS): > 100 µM
TGI (SF-295 CNS): > 100 µM
TGI (SF-539 CNS): > 100 µM
TGI (SK-MEL-2 melanoma): > 100 µM
TGI (SK-MEL-28 melanoma): > 100 µM
TGI (SK-MEL-5 melanoma): > 100 µM
TGI (SK-OV-3 ovarian): > 100 µM
TGI (SN12C renal): > 100 µM
TGI (SNB-19 CNS): > 100 µM
TGI (SNB-75 CNS): > 100 µM
TGI (SR leukemia): > 100 µM
TGI (SW-620 colon): > 100 µM
TGI (T-47D breast): > 100 µM
TGI (TK-10 renal): > 100 µM
TGI (U251 CNS): > 100 µM
TGI (UACC-257 melanoma): > 100 µM
TGI (UACC-62 melanoma): > 100 µM

COc1cc(O)c2c(=O)c3ccccc3n(C)c2c1
TGI (786-0 renal): > 100 µM
TGI (A498 renal): > 100 µM
TGI (A549 NSCLC): > 100 µM
TGI (ACHN renal): > 100 µM
TGI (BT-549 breast): > 100 µM
TGI (CAKI-1 renal): > 100 µM
TGI (CCRF-CEM leukemia): > 100 µM
TGI (COLO 205 colon): > 100 µM
TGI (DU-145 prostate): > 100 µM
TGI (EKVX NSCLC): > 100 µM
TGI (HCC-2998 colon): > 100 µM
TGI (HCT-116 colon): > 100 µM
TGI (HCT-15 colon): > 100 µM
TGI (HL-60(TB) leukemia): > 100 µM
TGI (HOP-62 NSCLC): 79 µM
TGI (HOP-92 NSCLC): > 100 µM
TGI (HS 578T breast): 59.2 µM
TGI (HT29 colon): > 100 µM
TGI (IGROV1 ovarian): > 100 µM
TGI (K-562 leukemia): > 100 µM
TGI (KM12 colon): > 100 µM
TGI (LOX IMVI melanoma): > 100 µM
TGI (M14 melanoma): > 100 µM
TGI (MALME-3M melanoma): > 100 µM
TGI (MCF7 breast): > 100 µM
TGI (MDA-MB-231 breast): > 100 µM
TGI (MDA-MB-435): > 100 µM
TGI (MDA-N): > 100 µM
TGI (MOLT-4 leukemia): > 100 µM
TGI (NCI-H226 lung): > 100 µM
TGI (NCI-H23 lung): > 100 µM
TGI (NCI-H460 lung): > 100 µM
TGI (NCI-H522 lung): > 100 µM
TGI (NCI/ADR-RES ovarian): > 100 µM
TGI (OVCAR-3 ovarian): > 100 µM
TGI (OVCAR-4 ovarian): > 100 µM
TGI (OVCAR-5 ovarian): > 100 µM
TGI (OVCAR-8 ovarian): > 100 µM
TGI (PC-3 prostate): > 100 µM
TGI (RXF 393 renal): 51.4 µM
TGI (SF-268 CNS): > 100 µM
TGI (SF-295 CNS): > 100 µM
TGI (SF-539 CNS): > 100 µM
TGI (SK-MEL-2 melanoma): > 100 µM
TGI (SK-MEL-28 melanoma): > 100 µM
TGI (SK-MEL-5 melanoma): > 100 µM
TGI (SK-OV-3 ovarian): > 100 µM
TGI (SN12C renal): > 100 µM
TGI (SR leukemia): > 100 µM
TGI (SW-620 colon): > 100 µM
TGI (T-47D breast): > 100 µM
TGI (TK-10 renal): > 100 µM
TGI (U251 CNS): > 100 µM
TGI (UACC-257 melanoma): > 100 µM
TGI (UACC-62 melanoma): > 100 µM
TGI (UO-31 renal): > 100 µM
